# Source: ChEMBL document CHEMBL1201862, “PubChem BioAssay data set” (2004)
# The source made the active and inactive calls.
# Assays:
# Cytochrome P450 2D6 = Cytochrome P450 2D6 (Homo sapiens, UniProt P10635);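 further: CYP2D6 member of a cytochrome P450 panel assay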
# Cytochrome P450 1A2 = target: T1, Cytochrome P450 1A2 (Homo sapiens, UniProt P05177);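 further: PubChem cytochrome P450 panel assay, CYP1A2 panel member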
# T1 sequence (P05177 whole entry): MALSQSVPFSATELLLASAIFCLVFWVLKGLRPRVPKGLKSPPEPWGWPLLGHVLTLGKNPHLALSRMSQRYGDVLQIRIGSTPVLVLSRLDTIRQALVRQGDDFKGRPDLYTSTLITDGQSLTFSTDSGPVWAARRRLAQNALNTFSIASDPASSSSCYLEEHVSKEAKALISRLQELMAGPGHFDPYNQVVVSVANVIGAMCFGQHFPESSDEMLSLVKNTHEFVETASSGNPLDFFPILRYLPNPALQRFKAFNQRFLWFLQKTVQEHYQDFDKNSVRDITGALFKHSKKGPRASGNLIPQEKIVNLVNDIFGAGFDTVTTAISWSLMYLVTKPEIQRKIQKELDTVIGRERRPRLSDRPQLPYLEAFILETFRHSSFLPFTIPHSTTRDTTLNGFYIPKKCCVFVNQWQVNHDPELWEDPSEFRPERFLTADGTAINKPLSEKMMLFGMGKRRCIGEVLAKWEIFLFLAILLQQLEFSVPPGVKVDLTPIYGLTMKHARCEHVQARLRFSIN
# [1] = target: T2, Corticotropin-releasing factor receptor 2/Corticotropin-releasing factor-binding protein (Homo sapiens, UniProt P24387+Q13324); assay: Dose Response confirmation of uHTS hits for small molecule antagonists of the CRF-binding protein and CRF-R2 receptor complex.; assay type: functional; details: read-out: IC50_Mean
# T2 sequence (Q13324 whole entry): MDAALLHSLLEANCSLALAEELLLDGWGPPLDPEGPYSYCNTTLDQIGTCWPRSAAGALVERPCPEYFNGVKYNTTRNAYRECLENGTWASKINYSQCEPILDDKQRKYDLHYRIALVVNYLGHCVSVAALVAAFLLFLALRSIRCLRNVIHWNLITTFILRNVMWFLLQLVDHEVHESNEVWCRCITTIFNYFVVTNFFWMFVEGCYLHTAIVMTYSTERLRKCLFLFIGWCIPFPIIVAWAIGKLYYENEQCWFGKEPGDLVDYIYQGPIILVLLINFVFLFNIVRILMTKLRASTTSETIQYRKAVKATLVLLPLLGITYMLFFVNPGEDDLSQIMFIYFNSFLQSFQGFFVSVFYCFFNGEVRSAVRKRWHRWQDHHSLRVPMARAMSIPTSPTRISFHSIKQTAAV
# T2 sequence (P24387 whole entry): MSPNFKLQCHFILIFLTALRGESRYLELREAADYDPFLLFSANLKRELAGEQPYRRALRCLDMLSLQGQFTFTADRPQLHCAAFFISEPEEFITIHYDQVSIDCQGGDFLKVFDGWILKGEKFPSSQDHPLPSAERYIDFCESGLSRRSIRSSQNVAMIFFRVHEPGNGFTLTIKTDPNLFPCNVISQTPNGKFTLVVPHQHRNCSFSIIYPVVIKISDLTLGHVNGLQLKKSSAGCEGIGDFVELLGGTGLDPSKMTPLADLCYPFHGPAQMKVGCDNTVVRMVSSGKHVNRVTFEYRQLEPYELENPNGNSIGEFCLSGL
# [2] = target: T2, Corticotropin-releasing factor receptor 2/Corticotropin-releasing factor-binding protein; assay: activators of CRF receptor 2 with binding protein – uHTS hits, confirmation (AID 602473); assay type: functional; details: read-out: EC50_Mean
# [3] = test system: Streptococcus sp. 'group A'; assay: growth inhibition of control SK(-) GAS strain, dose response, counter-screen for streptokinase expression inhibitor project, luminescence, kanamycin, BacTiterGlo, confirmation (AID 1900); assay type: functional, organism-based
# Streptokinase A = target: T3, Streptokinase A (Streptococcus pyogenes serotype M1, UniProt P10520); assay: S. pyogenes streptokinase expression inhibitors, potency, dose response, plasminogen activation absorbance, OD405 (AID 1914); assay type: functional, Streptococcus pyogenes M1 GAS;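 further: secreted streptokinase activity via plasminogen activation per viability signal from cell pellet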
# T3 sequence (P10520 whole entry): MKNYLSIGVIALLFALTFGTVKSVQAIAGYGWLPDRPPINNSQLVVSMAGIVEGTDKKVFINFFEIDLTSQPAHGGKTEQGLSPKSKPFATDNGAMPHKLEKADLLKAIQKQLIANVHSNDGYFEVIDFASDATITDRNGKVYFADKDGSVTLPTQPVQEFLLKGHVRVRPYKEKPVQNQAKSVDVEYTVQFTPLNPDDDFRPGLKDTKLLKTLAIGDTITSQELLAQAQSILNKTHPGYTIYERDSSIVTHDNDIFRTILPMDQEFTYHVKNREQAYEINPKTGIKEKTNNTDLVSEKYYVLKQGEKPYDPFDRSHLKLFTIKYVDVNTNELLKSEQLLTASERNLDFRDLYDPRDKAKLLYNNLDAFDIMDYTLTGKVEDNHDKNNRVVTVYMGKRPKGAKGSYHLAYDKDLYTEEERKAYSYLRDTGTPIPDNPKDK
# Streptococcus = assay: Group A Streptococcus viability loss, dose response, counter-screen for streptokinase expression inhibitor project, luminescence, BacTiterGlo (AID 1915); assay type: functional, organism-based;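 further: potency for reduction of bacterial viability or growth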
# Cytochrome P450 2C9 = Cytochrome P450 2C9 (Homo sapiens, UniProt P11712)
# Chain of Cytochrome P450 2C9 (P11712 whole entry): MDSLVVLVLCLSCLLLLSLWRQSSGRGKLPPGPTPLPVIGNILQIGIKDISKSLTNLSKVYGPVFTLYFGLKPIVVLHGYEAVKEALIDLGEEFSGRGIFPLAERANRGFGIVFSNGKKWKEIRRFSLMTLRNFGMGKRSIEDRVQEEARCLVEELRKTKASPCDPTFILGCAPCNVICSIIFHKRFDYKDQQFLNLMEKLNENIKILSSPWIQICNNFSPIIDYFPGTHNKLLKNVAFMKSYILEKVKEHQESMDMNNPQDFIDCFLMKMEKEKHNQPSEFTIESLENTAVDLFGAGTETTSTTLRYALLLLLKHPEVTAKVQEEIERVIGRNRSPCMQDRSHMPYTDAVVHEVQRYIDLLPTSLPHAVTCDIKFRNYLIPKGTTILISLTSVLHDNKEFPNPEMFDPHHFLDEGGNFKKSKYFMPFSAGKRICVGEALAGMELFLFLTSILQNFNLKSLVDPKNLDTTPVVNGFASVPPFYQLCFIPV
# [4] = target: T4, Rac GTPase-activating protein 1 (Homo sapiens, UniProt Q9H0H5); assay: MgcRacGAP GTPase-activating activity inhibitors, confirmation, biochemical, ADP Hunter fluorescence, primary and confirmatory (AID 624330); assay type: functional
# T4 sequence (Q9H0H5 whole entry): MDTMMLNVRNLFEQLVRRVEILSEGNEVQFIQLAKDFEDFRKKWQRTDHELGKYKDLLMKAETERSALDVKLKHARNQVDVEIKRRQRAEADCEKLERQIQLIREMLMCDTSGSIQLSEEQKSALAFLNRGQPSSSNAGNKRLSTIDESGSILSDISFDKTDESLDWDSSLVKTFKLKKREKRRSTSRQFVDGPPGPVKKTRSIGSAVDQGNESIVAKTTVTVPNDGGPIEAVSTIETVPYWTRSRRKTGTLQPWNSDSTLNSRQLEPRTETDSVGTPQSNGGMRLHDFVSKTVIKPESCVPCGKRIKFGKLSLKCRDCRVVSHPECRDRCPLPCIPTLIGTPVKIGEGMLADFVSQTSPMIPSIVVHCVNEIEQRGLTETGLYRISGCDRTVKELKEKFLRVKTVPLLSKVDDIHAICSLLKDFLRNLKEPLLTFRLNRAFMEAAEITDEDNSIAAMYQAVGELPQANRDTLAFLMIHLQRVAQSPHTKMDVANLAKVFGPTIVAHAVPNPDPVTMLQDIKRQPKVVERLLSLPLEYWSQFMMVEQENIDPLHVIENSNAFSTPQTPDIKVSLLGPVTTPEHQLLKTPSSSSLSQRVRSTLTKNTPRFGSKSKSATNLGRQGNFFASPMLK
# Cytochrome P450 3A4 = Cytochrome P450 3A4 (Homo sapiens, UniProt P08684);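 further: CYP3A4 tested as one member of a cytochrome P450 panel screen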
# Chain of Cytochrome P450 3A4 (P08684 whole entry): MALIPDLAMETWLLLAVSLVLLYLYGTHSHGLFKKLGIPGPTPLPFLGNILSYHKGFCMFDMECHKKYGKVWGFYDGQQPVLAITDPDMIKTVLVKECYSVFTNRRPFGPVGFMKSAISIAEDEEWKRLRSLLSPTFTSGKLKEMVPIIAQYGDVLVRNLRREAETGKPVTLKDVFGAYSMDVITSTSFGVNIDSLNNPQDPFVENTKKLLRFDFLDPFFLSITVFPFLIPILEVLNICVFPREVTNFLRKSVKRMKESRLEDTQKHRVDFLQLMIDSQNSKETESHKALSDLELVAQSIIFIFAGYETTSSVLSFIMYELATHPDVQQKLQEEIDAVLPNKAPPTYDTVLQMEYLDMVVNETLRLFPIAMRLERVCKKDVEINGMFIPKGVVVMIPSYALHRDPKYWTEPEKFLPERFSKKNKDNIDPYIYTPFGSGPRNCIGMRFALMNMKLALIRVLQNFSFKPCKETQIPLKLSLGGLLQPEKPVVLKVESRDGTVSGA
# Cytochrome P450 2C19 = Cytochrome P450 2C19 (Homo sapiens, UniProt P33261); assay: Cytochrome panel assay with activity outcomes. Panel member name: p450-cyp2c19 Compounds with AC50 equal or less than 10 uM are considered active; assay type: functional; details: read-out: AC50
# Chain of Cytochrome P450 2C19 (P33261 whole entry): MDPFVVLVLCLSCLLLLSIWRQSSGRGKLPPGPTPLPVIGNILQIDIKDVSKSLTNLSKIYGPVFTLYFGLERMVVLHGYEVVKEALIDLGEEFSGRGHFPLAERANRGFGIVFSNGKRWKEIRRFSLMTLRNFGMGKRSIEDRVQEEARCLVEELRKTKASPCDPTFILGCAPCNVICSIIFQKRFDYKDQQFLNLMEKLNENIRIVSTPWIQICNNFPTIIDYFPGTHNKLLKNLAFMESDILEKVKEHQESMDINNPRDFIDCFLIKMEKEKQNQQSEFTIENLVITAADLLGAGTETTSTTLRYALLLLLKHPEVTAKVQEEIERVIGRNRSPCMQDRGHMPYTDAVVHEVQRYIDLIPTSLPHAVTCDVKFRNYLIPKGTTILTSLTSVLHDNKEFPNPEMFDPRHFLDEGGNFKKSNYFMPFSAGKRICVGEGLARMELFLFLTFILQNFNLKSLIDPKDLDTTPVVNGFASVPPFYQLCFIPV
# INS1 = assay: beta cell apoptosis inhibitors, cytokine rescue, dose response, luminescence, retest (AID 449756); assay type: functional, cell-based; details: Rattus norvegicus;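 further: cell death triggered by IL-1 beta plus TNF-alpha plus IFN-gamma mixture; protective hits raise ATP signal compared with cytokine alone wells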
# Chain of Cytochrome P450 2D6 (P10635 whole entry): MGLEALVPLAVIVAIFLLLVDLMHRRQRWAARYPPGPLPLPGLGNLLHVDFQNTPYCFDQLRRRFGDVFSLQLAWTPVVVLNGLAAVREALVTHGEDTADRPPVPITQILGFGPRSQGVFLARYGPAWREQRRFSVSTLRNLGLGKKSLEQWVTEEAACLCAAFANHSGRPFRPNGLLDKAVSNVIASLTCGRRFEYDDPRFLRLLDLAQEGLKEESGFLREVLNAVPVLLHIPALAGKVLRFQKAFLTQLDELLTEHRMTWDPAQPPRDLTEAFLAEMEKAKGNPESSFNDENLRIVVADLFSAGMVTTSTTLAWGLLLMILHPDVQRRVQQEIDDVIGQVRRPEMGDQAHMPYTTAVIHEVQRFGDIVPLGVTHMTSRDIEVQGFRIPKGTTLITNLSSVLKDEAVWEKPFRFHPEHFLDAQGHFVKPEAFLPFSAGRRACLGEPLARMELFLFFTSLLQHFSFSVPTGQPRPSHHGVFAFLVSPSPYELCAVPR
structure (smiles),measurement,setting,value
O=C(c1cccc(F)c1)N1CCC[C@@]2(CCN(Cc3nccs3)C2)C1,AC50,Cytochrome P450 2D6,20 µM (inconclusive)
same,AC50,Cytochrome P450 1A2,12.6 µM (inconclusive)
O=C(NCc1cn2ccccc2n1)C1CCC(=O)N(Cc2ccccc2F)C1 (centres undefined),IC50,[1],> 47.1 µM (inactive)
same,EC50,[2],> 53 µM (inactive)
CC(C)(C)N/N=C1\CC(c2ccccc2)Oc2ccccc21 (centres undefined),EC50,[3],6.48 µM (active)
same,EC50,Streptokinase A,7.08 µM (active)
same,EC50,Streptococcus,> 150 µM (not active)
O=C(Nc1ccccc1)c1ccccc1OCc1cccc([N+](=O)[O-])c1,IC50,[1],> 47.1 µM (inactive)
same,EC50,[2],> 53 µM (inactive)
CC(C)NC(=S)N(CCc1ccncc1)C(C)C,IC50,[1],> 47.1 µM (inactive)
same,EC50,[2],> 53 µM (inactive)
COCCn1c(=O)c(-c2cc(F)cc(F)c2)nc2cnc(N3CCN(C)CC3)nc21,AC50,Cytochrome P450 1A2,15.8 µM (inconclusive)
same,AC50,Cytochrome P450 2C9,39.8 µM (inconclusive)
CC12CCC(C/C1=N\OC(=O)c1c(F)cccc1F)C2(C)C (centres undefined),IC50,[1],> 47.1 µM (inactive)
same,EC50,[2],> 53 µM (inactive)
O=C(O)c1ccc(NCc2nc3cc4ccccc4cc3[nH]2)cc1,AC50,Cytochrome P450 1A2,5.01 µM (inconclusive)
CC1(C2CC2)NC(=O)N(CC(=O)Nc2ccccc2F)C1=O (centres undefined),IC50,[1],> 47.1 µM (inactive)
same,EC50,[2],> 53 µM (inactive)
COc1cc(/C=C2/C(=N)N3C=C(C)SC3=NC2=O)ccc1O,IC50,[4],71.9 µM (active)
Cc1ccc(-n2c(S)nnc2-c2cc(C)n(C)n2)cc1,AC50,Cytochrome P450 1A2,28.2 µM (inconclusive)
COc1cc2c(CCNC(C)=O)c[nH]c2cc1O,IC50,[4],52.3 µM (active)
same,AC50,Cytochrome P450 2D6,39.8 µM (inconclusive)
same,AC50,Cytochrome P450 1A2,31.6 µM (inconclusive)
same,AC50,Cytochrome P450 3A4,15.8 µM (inconclusive)
CCCCN(C(=O)CSc1nnc[nH]1)c1c(N)n(Cc2ccccc2)c(=O)[nH]c1=O,IC50,[1],> 47.1 µM (inactive)
same,EC50,[2],> 53 µM (inactive)
Fc1ccccc1CNc1ccc(Cl)c(Cl)c1,EC50,[3],11.4 µM (active)
same,EC50,Streptokinase A,> 150 µM (not active)
same,EC50,Streptococcus,63.8 µM (active)
COc1ccc(COC(=O)N/N=C(\C)CC(=O)Nc2c(C)cc(C)cc2C)cc1,AC50,Cytochrome P450 2C19,25.1 µM (inconclusive)
same,AC50,Cytochrome P450 1A2,22.4 µM (inconclusive)
CCCCCC(=O)O[C@H](CC(=O)O)C[N+](C)(C)C,AC50,Cytochrome P450 1A2,31.6 µM (inconclusive)
C/C(=N/NC(=O)CNC(=O)c1cccnc1)c1cccc([N+](=O)[O-])c1,EC50,[3],> 150 µM (not active)
same,EC50,Streptokinase A,> 150 µM (not active)
same,EC50,Streptococcus,> 150 µM (not active)
COCC1CCN(C(=O)CCc2nnc(C3(c4ccc(Cl)cc4)CCC3)o2)C1 (centres undefined),EC50,[3],> 150 µM (not active)
same,EC50,Streptokinase A,> 150 µM (not active)
same,EC50,Streptococcus,> 150 µM (not active)
FC(F)(F)c1cccc(-c2nc3nc(Cl)c(Cl)nc3[nH]2)c1,EC50,[3],7.96 µM (active)
same,EC50,Streptokinase A,> 150 µM (not active)
same,EC50,Streptococcus,94.8 µM (active)
same,AC50,INS1,3.23 µM (active)
same,AC50,Cytochrome P450 3A4,5.01 µM (inconclusive)
Cn1cccc1C(=O)N1CCC[C@@]2(CCN(Cc3ccccc3)C2)C1,AC50,Cytochrome P450 1A2,10 µM (inconclusive)
same,AC50,Cytochrome P450 3A4,5.01 µM (inconclusive)
Cc1cc(C)c(NC(=O)CSc2nnc(Cc3cccn3C)n2-c2ccc(F)cc2)c(C)c1,AC50,Cytochrome P450 2C19,28.2 µM (inconclusive)
same,AC50,Cytochrome P450 1A2,2.51 µM (inconclusive)
O=C(NCc1ccc2c(c1)OCO2)Nc1ccc(F)cc1,EC50,[3],> 150 µM (not active)
same,EC50,Streptokinase A,> 150 µM (not active)
same,EC50,Streptococcus,> 150 µM (not active)
COc1cc(OC)c([C@H]2C=C(C)[C@H]3C[C@@H]2C3(C)C)c(OC)c1,EC50,[3],4.7 µM (active)
same,EC50,Streptokinase A,63.3 µM (active)
same,EC50,Streptococcus,9.95 µM (active)
COc1ccc(Cc2nnc(NC(=O)Nc3ccc(C)cc3)s2)cc1OC,IC50,[1],> 47.1 µM (inactive)
same,EC50,[2],> 53 µM (inactive)
Cc1ccccc1OCC(=O)NC(=S)Nc1ccc(N2CCOCC2)c(Cl)c1,AC50,Cytochrome P450 1A2,12.6 µM (inconclusive)
same,AC50,Cytochrome P450 3A4,14.1 µM (inconclusive)
same,AC50,Cytochrome P450 2C9,15.8 µM (inconclusive)
COc1ccc(NC(=O)N2CCC3(CC2)CCN(C(=O)c2csnn2)CC3)cc1,AC50,Cytochrome P450 1A2,6.31 µM (inconclusive)
same,AC50,Cytochrome P450 3A4,12.6 µM (inconclusive)
C=CCOc1ccccc1CN1CCCN(C)CC1,IC50,[4],178 µM (active)
O=C(O)c1cc(-c2ccc3cc4c(cc3c2)OCO4)nc2ccccc12,AC50,Cytochrome P450 1A2,3.16 µM (inconclusive)
Cc1cc(C)c(NC(=O)C(C)Sc2nnc(-c3ccco3)n2-c2ccccc2)c(C)c1 (centres undefined),AC50,Cytochrome P450 1A2,22.4 µM (inconclusive)
Cc1cccc(N2C(=O)NC(=O)/C(=C\c3ccc(N4CCOCC4)cc3)C2=O)c1,IC50,[1],> 47.1 µM (inactive)
same,EC50,[2],> 53 µM (inactive)
COc1ccc(S(=O)(=O)Nc2c(C)n(C)n(-c3ccccc3)c2=O)cc1C(=O)O,IC50,[1],> 47.1 µM (inactive)
same,EC50,[2],> 53 µM (inactive)
Cc1cc(C(=O)Nc2ccc3c(c2)OCCO3)nn1C(C)(C)C,IC50,[1],> 47.1 µM (inactive)
same,EC50,[2],> 53 µM (inactive)
Cn1cc(CN2CCCC(C(=O)Nc3cccc(-c4cc5ccccc5[nH]4)c3)C2)cn1 (centres undefined),IC50,[1],> 47.1 µM (inactive)
same,EC50,[2],42.9 µM (active)
COc1cc(/C=C/C(=O)OCC(=O)NC(=O)NC(C)(C)C)ccc1O,IC50,[4],57.5 µM (active)
COCCCn1c(=S)[nH]c2sc3c(c2c1=O)CCCC3,IC50,[4],32.9 µM (active)
COC(=O)c1sccc1-c1ccc(C(=O)Nc2cccnc2)o1,AC50,Cytochrome P450 1A2,0.282 µM (inconclusive)
